The results in this text go back to paper PMC5773217, “Xylose donor transport is critical for fungal virulence” (PLoS Pathogens, 2018).

One series concerns the target T1, Gmt1 (Cryptococcus neoformans, UniProt J9VRU7).
T1 construct: gene CNAG_05817; full coding region, C-terminal His/V5 tag kept, pYES-DEST52 in S. cerevisiae INVSc1, membrane protein reconstituted into proteoliposomes
Put plainly: uptake into reconstituted proteoliposomes, LC-MS/MS. Particulars: 37°C. In kind it is biochemical.

The next series addresses T2, Gmt2 (Cryptococcus neoformans, UniProt J9VY61).
T2 construct: gene CNAG_03426; full coding region, C-terminal His/V5 tag kept, pYES-DEST52 in S. cerevisiae INVSc1, membrane protein reconstituted into proteoliposomes
The series is described as above. In kind it is biochemical. As to conditions: 37°C.

Series [1] concerns O=c1ccn([C@@H]2O[C@H](COP(=O)(O)OP(=O)(O)O[C@H]3OC[C@@H](O)[C@H](O)[C@H]3O)[C@@H](O)[C@H]2O)c(=O)[nH]1. The series is described as follows: cells, lysate or membranes. As to conditions: antiport, preloaded with 10 mM UMP; 2 min; UDP-Xyl 0-100 μM.
Setting [2] is: antiport, preloaded with 30 mM GMP, 16-substrate mixture, 50 μM each, 10 min.
The mark [3] stands for this setting: antiport counter-substrate, 30 mM GMP preloaded, GDP-Man outside.

T2 sequence (J9VY61 entry or part of it): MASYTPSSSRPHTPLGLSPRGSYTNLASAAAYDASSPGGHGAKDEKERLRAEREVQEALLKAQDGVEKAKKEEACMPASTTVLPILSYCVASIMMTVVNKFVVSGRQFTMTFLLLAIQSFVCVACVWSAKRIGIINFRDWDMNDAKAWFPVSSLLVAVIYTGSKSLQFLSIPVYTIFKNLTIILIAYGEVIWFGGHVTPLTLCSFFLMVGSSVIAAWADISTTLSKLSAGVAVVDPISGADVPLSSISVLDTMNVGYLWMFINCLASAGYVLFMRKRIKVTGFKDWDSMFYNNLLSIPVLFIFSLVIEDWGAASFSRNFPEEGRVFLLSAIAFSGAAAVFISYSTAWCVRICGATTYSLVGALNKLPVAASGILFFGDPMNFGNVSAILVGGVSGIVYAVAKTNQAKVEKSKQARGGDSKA
T1 sequence (J9VRU7 entry or part of it): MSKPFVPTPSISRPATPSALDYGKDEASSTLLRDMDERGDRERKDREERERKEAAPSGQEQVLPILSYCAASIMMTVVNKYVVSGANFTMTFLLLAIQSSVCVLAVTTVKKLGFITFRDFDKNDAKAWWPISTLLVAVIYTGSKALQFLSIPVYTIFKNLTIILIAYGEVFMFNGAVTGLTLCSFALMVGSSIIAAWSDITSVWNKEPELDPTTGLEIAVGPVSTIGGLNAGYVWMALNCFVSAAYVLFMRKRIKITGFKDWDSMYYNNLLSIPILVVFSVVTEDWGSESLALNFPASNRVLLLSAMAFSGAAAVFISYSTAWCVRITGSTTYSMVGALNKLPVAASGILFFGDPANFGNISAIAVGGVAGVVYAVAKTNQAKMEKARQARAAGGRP

Take `Nc1nc2c(ncn2[C@@H]2O[C@H](COP(=O)(O)OP(=O)(O)O[C@H]3O[C@H](CO)[C@@H](O)[C@H](O)[C@@H]3O)[C@@H](O)[C@H]2O)c(=O)[nH]1` [GDP-Man]: the “uptake into reconstituted proteoliposomes, LC-MS/MS” value on Gmt1 (setting [2]) is “Both proteins transported GDP-Man and smaller amounts of other GDP-sugars in exchange for GMP”; on Gmt2 (setting [2]), “Both proteins transported GDP-Man and smaller amounts of other GDP-sugars in exchange for GMP”.
For the compound `Nc1nc2c(ncn2[C@@H]2O[C@H](COP(=O)(O)O)[C@@H](O)[C@H]2O)c(=O)[nH]1` [GMP], the “uptake into reconstituted proteoliposomes, LC-MS/MS” value on Gmt1 (setting [3]) is “Both proteins transported GDP-Man and smaller amounts of other GDP-sugars in exchange for GMP”; on Gmt2 (setting [3]), “Both proteins transported GDP-Man and smaller amounts of other GDP-sugars in exchange for GMP”.
The term Km denotes the substrate concentration at which the rate is half of its maximum. By kcat is commonly meant the number of substrate molecules converted per active site and unit of time at saturation. As for Uxt1 (Cryptococcus neoformans H99), in series [1], the Km worked out at 1.0 ± 0.2 µM and the kcat was found to be 0.9 s⁻¹.
The like results for Uxt2 (Cryptococcus neoformans H99) were, in that order, 2.2 ± 0.5 µM and 0.4 s⁻¹.
